Assay results from patent US20240216383A1, “FORMULATIONS AND METHODS FOR TREATING ERECTILE DYSFUNCTION” (Strategic Drug Solutions, Inc., priority 2020, published 2024).
Converted amounts (≈) assume the structure as drawn. Counter-ions that a name gives are not always drawn. Like-named read-outs stand apart in the source and are kept apart here.

Columns and labels:
[1] = cited from earlier work; for half-life: oral, terminal half-life
[2] = Saturated solubility of sildenafil in water and organic-aqueous solvents (shake flask, HPLC); format: physicochemical; settings: for solubility: water, thermodynamic from solid
Source text: Afterwards the solution was filtered using the VWR 0.2 mcron filter.

[3] = cited from earlier work
[4] = cited from earlier work; remark: listed apart in the source
[5] = Saturated solubility of vardenafil API in water and organic-aqueous solvents (shake flask, HPLC); format: physicochemical; settings: for solubility: water, pH 4, aqueous buffer, thermodynamic from solid, pH4
Description: For screening of various organic solvents, the solubility of vardenafil API in different % ethanol-aqueous mixtures was first investigated and compared to solubility in pure water. As disclosed herein, the solutions were prepared by the “shake flask” method. Briefly, increasing amounts of vardenafil API were added to different mixtures until saturation. The saturated organic-aqueous mixtures were adjusted for pH (at the range pH 3.5-7.5) with the use of a pH meter. The saturated solution was shaken slowly with a magnetic stirrer at room temperature or shaken rapidly several times a day for 24 hours or longer, up to 3 days. Afterwards, the solutions were filtered using the VWR 0.2 micron filter. The filtrate was then used for inspection of clarity and concentration was determined by HPLC. In addition, the saturated solubility of vardenafil various organic-aqueous solution, e.g., in glycerin (glycerol), polyethylene glycol 400 (PEG) and combination of two organic solvents were investigated. Vardenafil solubility in some other representative organic-aqueous solutions were also investigated.
The standard curves were prepared in MeOH and mixed with PBS so that the analytical matrices were the same.

[6] = Vardenafil permeability (Papp) and flux (Jss) by PAMPA; format: in vitro ADME
Source text: As disclosed herein, the permeability of vardenafil API in different solvents at room temperature and atmospheric pressure was screened using in vitro PAMPA. The PAMPA predicts passive absorption of drugs and is suitable for studies with many solutions including ethanol (up to concentration of 30%)(22-24). The unit of measurement is the apparent permeability (Papp) obtained at steady state, expressed as cm/second. Also another associated measurement is the maximum flux (Jss) at a particular pH, expressed as the quantity of drug across the unit area per sec, is calculated from the Papp and saturated solubility. […]
Apparent permeability coefficient (Papp) determination, expressed as cm/sec, was calculated based on the following equation at steady state (24) where • VD=volume in donor chamber • VA=volume in acceptor chamber • A=effective area of the membrane (PAMPA: 0.3 cm^2) • t=duration of the permeability study • CA=drug concentration in the acceptor well at the end of the study • CE=equilibrium concentration in both wells, and […]
Steady state flux (Jss). The Jss, expressed as ug/sec/cm^2, was calculated based on the following equation where • CD=loading concentration in the donor chamber […]

In the case of `CCCc1nc(C)c2c(=O)[nH]c(-c3cc(S(=O)(=O)N4CCNCC4)ccc3OCC)nn12` [MI metabolite], the “share of total pharmacologic activity” value ([1]; metabolite of vardenafil) is listed as “about 7%”.

For `CCCc1nn(C)c2c(=O)[nH]c(-c3cc(S(=O)(=O)N4CCN(C)CC4)ccc3OCC)nc12` [sildenafil], the aqueous solubility ([2]; sildenafil, pHmax 4.2) was 3540 µg/mL (≈ 7.46 mM), the solubility ([2]; pH 4, aqueous buffer, read-out: aqueous saturated solubility) was < 5000 µg/mL and the solubility ([2]; pH 4.55, aqueous buffer, read-out: aqueous solubility) was 3340 µg/mL (≈ 7.04 mM). The absolute bioavailability ([1]; oral administration) was “about 41%”, the “mean time (Tmax) for maximum plasma concentration” value (“mean time (Tmax)” for short) ([1]; oral administration) was “about 60 min” and the half-life [1] was “about 4 h”. The “log P” value [3] was 2.7, the pKa ([3]; vardenafil: 7.15 mostly basic, 9.86 mostly acidic) was 7.2 and the solubility in water ([4]; pH 3-4) was “about 7.0 mg/ml”. The solubility in water ([4]; pH 5) was ~2100 µg/mL (≈ 4.42 mM) and the solubility in water ([4]; pH 7) was ~30 µg/mL (≈ 0.0632 mM).

For `CN1CC(=O)N2[C@H](c3ccc4c(c3)OCO4)c3[nH]c4ccccc4c3C[C@@H]2C1=O` [tadalafil], the “mean time (Tmax)” value ([1]; following a single dose) is listed as “about 2 h”, the absolute bioavailability ([1]; oral administration) is listed as ≤ 80% and the half-life [1] is listed as “about 17.5 h”.

For `CCCc1nc(C)c2c(=O)[nH]c(-c3cc(S(=O)(=O)N4CCN(CC)CC4)ccc3OCC)nn12` [vardenafil API, vardenafil hydrochloride trihydrate], the time until precipitation ([5]; solubilized in 12% alcohol) was ≤ 24 h and the solubility ([5]; read-out: mean saturated solubility in water) was < 20000 µg/mL.

For `CCCc1nc(C)c2c(=O)[nH]c(-c3cc(S(=O)(=O)N4CCN(CC)CC4)ccc3OCC)nn12` [vardenafil], the solubility ([5]; read-out: V(ssol)pHmax, aqueous saturated solubility at pHmax) was 18200 µg/mL, the JsspHmax ([6]; vardenafil aqueous, pH4) was 7.74 E-05 ug/s/cm^2 and the “Jss(ref)” value ([6]; vardenafil, Solmin 20 mg/ml, IN dose 2 mg/nostril, pHmax pH4) was 8.5E-05 ug/s/cm^2. For the same compound, the absolute bioavailability ([1]; oral administration) was “about 15%”, the “mean time (Tmax)” value ([1]; oral administration) was “about 60 min” and the “log P” value [3] was 3.64. For the same compound, the solubility ([4]; pH 1) was “about 8.8 g/L”, the solubility ([4]; pH 2) was ~3000 µg/mL (≈ 6.14 mM) and the solubility ([4]; pH 3) was ~1600 µg/mL (≈ 3.27 mM). The aqueous solubility ([4]; pH 4-7) was “less than 2 mg/ml”, the solubility ([4]; pH 4) was ~880 µg/mL (≈ 1.8 mM) and the solubility ([4]; pH 5) was ~160 µg/mL (≈ 0.327 mM). For the same compound, the solubility ([4]; pH 6) was ~19 µg/mL (≈ 0.0389 mM).
